Earlier results, collected in US20150010635A1, “CONTROLLED RELEASE PARTICLES, WOOD TREATMENT AGENT, AND PRODUCING METHOD THEREOF” (Japan EnviroChemicals, Ltd., priority 2011, published 2015).
Like-named read-outs stand apart in the source and are kept apart here.

Row | SMILES | water solubility (room temperature) | water solubility
1 | CCN(CC)C(=O)c1cccc(C)c1 [DEET, N,N-diethyl-m-toluamide] | 990 ppm | –
2 | CCOc1ccc(C(C)(C)COCc2cccc(Oc3ccccc3)c2)cc1 [Ethofenprox, 2-(4-ethoxyphenyl)-2-methylpropyl-3-phenoxybenzylether] | – | 22.5 ppb
3 | CC1(C)C(C=C(Cl)Cl)C1C(=O)OCc1cccc(Oc2ccccc2)c1 (stereo not drawn) [Permethrin, 3-phenoxybenzyl(1RS,3RS;1RS,3SR)-3-(2,2-dichlorovinyl)-2,2-dimethylcyclopropanecarboxylate] | – | 6 ppb
4 | CCCC1COC(Cn2cncn2)(c2ccc(Cl)cc2Cl)O1 (stereo not shown) [Propiconazole, 1-[2-(2,4-dichlorophenyl)-4-n-propyl-1,3-dioxolane-2-ylmethyl]-1H-1,2,4-triazole] | 110 ppm | –
